Data set [1] deals with C. albicans CaCi-2. Description: Secondary assay 2: CaCi-2 in the absence of fluconazole. It is filed as cell-based. Particulars: Candida albicans, CACI2; no fluconazole, 48 h incubation; read-out: IC50 against C. albicans in the absence of fluconazole. The procedure: 5) Then, pin 100 nL of test compound from compound plates into assay plates using a CyBi-Well pin tool.
6) Dispense 20 µL/well of culture into the assay media in all wells.
7) Incubate the plates in a humidified (90% humidity) Liconic incubator at 37 °C without agitation for 48 hours.
8) Dilute Alamar Blue 1:40 in Ca/Mg-free PBS.
9) To all plates, add 5 µL/well of the diluted Alamar Blue to plates to a final dilution […]
10) Incubate the plates for 2 hours.
11) Read the relative fluorescence intensity (RFU) of wells on a standard plate reader as a measure of relative fungal growth. EnVision (Perkin Elmer) plate reader setup: Ex 544 nm, Em 590 nm, bandwidth 12 nm, top read.
Secondary assay 2: CaCi-2 in the absence of fluconazole
Clear, flat-bottom, black 384-well plates (Corning Catalog no. 3712BC; Lot no.
(§1) 35808016); geldanamycin (AG Scientific Catalog no. G-1047) 15 mM stock solution in […]
2) Read OD 600 of 1 mL of fungal culture in a cuvette using a standard optical density reader (Eppendorf BioPhotometer Plus), with growth medium as a […]
measured) × (desired final volume of inoculum) × 0.3 = volume of fungal culture […]
this yields a calculated starting OD of the fungal inoculum of 0.00015. […]
(§2) 11) Read relative fluorescence intensity (RFU) of wells on a standard plate reader as […]
(§3) measure of relative fungal growth. EnVision (Perkin Elmer) plate reader settings: […]

The nature of data set [2]: Secondary assay 3: fibroblast toxicity. It is filed as cell-based. To be noted: mouse, NIH-3T3 fibroblasts, murine 3T3 fibroblasts. The procedure:
as §2, §3
Secondary assay 3: fibroblast toxicity
Clear, flat-bottom, black, 384-well plates (Corning Catalog no. 3712BC Lot no.
as §1
DMSO; fluconazole (Sequoia Research Ltd.) 2 mg/mL stock solution in PBS; Alamar […]
Blue (AG Scientific Catalog no. DAL1100, Lot no. 151016SA); PBS w/o calcium and […]
magnesium (Cellgro Catalog no. 21-040-CV)
Optimem medium (Invitrogen Catalog no. 31985-070; Lot no. 548536); 2.5% (v/v) fetal […]
bovine serum (Hyclone Catalog no.30071.03; Lot no. ARF26748); 1% (v/v) Pen/Strep […]
Test strain: NIH-3T3 mammalian fibroblasts (ATCC CRL No. 1658) […]
1) Plate cells in 384-well plates at 6,000 cells/well in 20 µL assay medium.
2) Incubate plates overnight at 37 °C under 5% CO2.
1) After overnight culture, pin compounds into wells at 100 nL/well using the CyBio […]
CyBi-Well pinning instrument.
2) After pinning compounds, add 20 µL of assay medium supplemented with […]
fluconazole to each well. […]
6) Read the relative fluorescence intensity (RFU) of wells on a standard plate reader as a measure of relative cell growth. EnVision (Perkin Elmer) plate reader […]
setup: Ex 544 nm, Em […], bandwidth12 nm, top read.

Data set [3] in a line: Solubility in PBS. Particulars: aqueous buffer. It is filed as physicochemical.
Data set [4] deals with calcineurin-dependent signaling pathway. Kind of data set: Yeast-reporter assay, calcineurin-dependent signaling pathway. It is filed as cell-based. To be noted: Saccharomyces cerevisiae.

pIC50: −log10 of the molar value. In brackets after ≈: the same amount, converted by molar mass. Bounds are passed on as bounds.

Consider `COC(=O)Cn1nc(-c2cccc(OC)c2)c2ccccc21` [Compound 36], for which the pIC50 in data set [1] and in data set [4] was less than 4.59 in each case. Also, the IC50 at 48 h in data set [2] was more than 26 µM. This compound registered a solubility in data set [3] of 55 µM (≈ 16.3 µg/mL).

Source of the values: publication PMC3740683, “ML212: A small-molecule probe for investigating fluconazole resistance mechanisms in Candida albicans” (Beilstein Journal of Organic Chemistry, 2013).
